Experimental findings from PMC9551036, “A selective and orally bioavailable VHL-recruiting PROTAC achieves SMARCA2 degradation in vivo” (Nature Communications, 2022) are described below.

Several values for one entry are separate records, joined by “and”; a condition that tells them apart may be missing. Identical values can stand only once. Like-named read-outs stand apart in the source and are kept apart here.

One data set concerns the target SMARCA2 (Homo sapiens, UniProt P51531). In words: SMARCA2 capillary electrophoresis protein assay in other cell lines (A549, NCI-H1568, HCT116, LU99, HCC-364, HCT-15, HCC4006, SK-N-AS). In kind it is cell-based. Set-up: endogenous in cells; host or cells: RKO, NCI-H1568, A549, HCT116, LU99, HCC-364, HCT-15, HCC4006, SK-N-AS. Here is the method: 130,000–200,000 cells were seeded in 24-well plates and incubated until settled down or overnight. Compounds were dissolved in DMSO and added to cells in indicated concentrations using a digital dispenser following an optional media change. Cells were incubated for 4 or 18 h as indicated. For SMARCA2/4 half-life determination, 150,000 or 200,000 cells were seeded in 24-well plates. The next day, 50 µg/ml cycloheximide (Sigma) was added and cells were incubated for 1–24 h. For SMARCA2/4 re-synthesis measurements, 200,000 cells were seeded in 24-well plates. The next day, 100 nM compound 6 was added for 4 h to degrade SMARCA2/4, and a sample was taken as baseline for normalisation. To allow re-synthesis, a VHL binder (compound 32, 25 or 50 µM) was then added for 3 or 24 h. Medium was removed, cells were washed with PBS and lysed with 80 µl Lysis Buffer (MSD Tris Lysis Buffer (#R60TX-2) + Halt Inhibitor Cocktail (100x) + Benzonase 0.5 µL/ml). Samples were frozen at −80 °C and thawed at room temperature before use. Samples were transferred to a V-bottom plate and insoluble debris was pelleted by centrifugation for 5 min at maximum speed. The supernatant was transferred to a fresh plate. Master Mix and Ladder were prepared according to manufacturer’s instructions for 12–230 kDa Wes Separation Module, 8 × 25 capillary cartridges, Protein Simple #SM-W004 with Anti-Rabbit Detection Module for Wes, Peggy Sue or Sally Sue, Protein Simple #DM-001. 4.8 µl lysate were mixed with 1.2 µl Master Mix to achieve a protein concentration of ~0.5 µg/µl. Antibodies were diluted in Antibody Diluent II (SMARCA2 Sigma #HPA029981 RRID:AB_10602406 1:25–100, SMARCA4 Cell Signalling #49360 clone D1Q7F RRID:AB_2728743 1:15–120 or Abcam #ab110641 clone EPNCIR111A RRID:AB_10861578 1:60, GAPDH Abcam #ab9485 RRID:AB_307275 1:250). Wes plates were prepared and run according to manufacturer’s instructions. Proteins were quantified with accompanying Compass Software. SMARCA2/4 protein levels were normalised to GAPDH. […] Where applicable, curves were fitted using a 4-parametric logistic model.

Another data set is described as follows: Plasma protein binding. In kind it is in vitro ADME. Here is the method:
Binding of compound to plasma proteins was determined by equilibrium dialysis of 3 µmol/L compound in plasma (or plasma dilutions in PBS) against PBS through an 8 kDa molecular-weight cut-off cellulose membrane (RED device, Thermo Fisher) at 37 °C for 5 h. After incubation, aliquots from donor and acceptor compartments were precipitated and the concentrations in the supernatants were determined by quantitative LC-MS/MS. Calibration and quality control samples were prepared using blank plasma and internal standard. The fraction unbound was calculated as ratio of the compound concentration in the acceptor compartment to the concentration in the donor compartment.

In another data set the test system is P-gp. The data set is described as follows: Bidirectional permeability measurement in Caco-2 cells. The conditions noted are these: human, Caco-2, pH 7.4, with zosuquidar 5 µM; for Papp B→A at 2 h, 1 µM: Modified Caco-2, b to a, + PGPi (Zosuquidar), read-out: Modified Caco-2 Pba + PGPi (Zosuquidar). It is filed as in vitro ADME. Put shortly: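 Caco-2 monolayers grown 14–21 days, preincubated 24 h with medium containing 1 µM compound; bidirectional transport sampled up to 2 h, quantified by LC-MS/MS, ± 5 µM zosuquidar (P-gp inhibitor). Papp,AB and Papp,BA from receiver amount, donor C0, area and time; efflux ratio = Papp,BA/Papp,AB (duplicate means). TEER checked per plate.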
For orientation: Passage across Caco-2 layers is used to estimate intestinal permeability.

Where [1] appears, read: NCI-H1568 (4 h), mean ± SD, read-out: SMARCA2 DC50.
Where [2] appears, read: NCI-H1568, 4h, individual replicates, read-out: NCI-H1568 (4h) SMARCA2 DC50.
The mark [3] stands for this setting: bovine, 10% calf plasma dilution in PBS, 10% calf, fraction unbound, read-out: PPB fu 10% Calf.
Setting [4] is: bovine, 10% plasma (plasma dilution in PBS), 10% calf, read-out: PPB fu 10% Calf.

Sequence of SMARCA2 (P51531 whole entry): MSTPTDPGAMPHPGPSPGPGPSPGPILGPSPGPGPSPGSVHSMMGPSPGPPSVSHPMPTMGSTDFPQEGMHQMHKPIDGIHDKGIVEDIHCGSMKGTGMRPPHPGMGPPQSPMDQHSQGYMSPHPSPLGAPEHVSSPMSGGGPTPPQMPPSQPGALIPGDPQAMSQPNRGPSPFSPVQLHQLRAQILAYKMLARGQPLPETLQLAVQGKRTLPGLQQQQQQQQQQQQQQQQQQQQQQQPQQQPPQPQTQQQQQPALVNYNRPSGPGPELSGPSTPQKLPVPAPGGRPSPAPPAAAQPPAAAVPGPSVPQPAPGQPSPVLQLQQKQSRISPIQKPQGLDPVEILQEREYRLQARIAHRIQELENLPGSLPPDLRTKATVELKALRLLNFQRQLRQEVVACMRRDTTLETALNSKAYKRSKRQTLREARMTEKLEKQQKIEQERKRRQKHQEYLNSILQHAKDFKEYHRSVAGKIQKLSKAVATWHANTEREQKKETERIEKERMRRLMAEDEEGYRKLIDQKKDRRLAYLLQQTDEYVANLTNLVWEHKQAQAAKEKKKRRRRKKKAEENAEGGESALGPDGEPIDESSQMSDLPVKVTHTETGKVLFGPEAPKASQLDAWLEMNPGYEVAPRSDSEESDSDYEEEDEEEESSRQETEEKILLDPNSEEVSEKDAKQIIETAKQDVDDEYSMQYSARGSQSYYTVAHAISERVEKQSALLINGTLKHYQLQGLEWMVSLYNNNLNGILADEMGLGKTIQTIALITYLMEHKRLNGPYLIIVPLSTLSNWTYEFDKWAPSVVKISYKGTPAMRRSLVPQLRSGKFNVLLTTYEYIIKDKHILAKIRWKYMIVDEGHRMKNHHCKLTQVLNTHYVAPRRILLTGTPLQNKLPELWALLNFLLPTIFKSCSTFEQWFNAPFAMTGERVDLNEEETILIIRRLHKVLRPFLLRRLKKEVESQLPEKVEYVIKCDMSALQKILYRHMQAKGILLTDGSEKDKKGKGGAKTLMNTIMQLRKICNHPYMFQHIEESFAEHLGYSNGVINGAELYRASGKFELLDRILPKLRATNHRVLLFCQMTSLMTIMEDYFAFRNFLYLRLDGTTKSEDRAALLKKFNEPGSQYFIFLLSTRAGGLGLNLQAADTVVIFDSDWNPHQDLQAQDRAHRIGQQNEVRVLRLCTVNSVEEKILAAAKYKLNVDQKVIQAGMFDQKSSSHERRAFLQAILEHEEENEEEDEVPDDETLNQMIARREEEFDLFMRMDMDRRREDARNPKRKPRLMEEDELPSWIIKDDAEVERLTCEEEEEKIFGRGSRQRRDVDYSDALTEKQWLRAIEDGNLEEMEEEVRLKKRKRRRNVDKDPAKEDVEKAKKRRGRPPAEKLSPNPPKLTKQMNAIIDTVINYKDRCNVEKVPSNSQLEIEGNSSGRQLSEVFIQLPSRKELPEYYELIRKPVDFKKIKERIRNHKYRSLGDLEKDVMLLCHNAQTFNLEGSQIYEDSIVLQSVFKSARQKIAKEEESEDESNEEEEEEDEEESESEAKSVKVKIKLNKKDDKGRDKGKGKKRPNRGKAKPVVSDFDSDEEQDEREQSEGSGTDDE

Turning to `Cc1ncsc1-c1ccc([C@H](COC(C)CN2CCC(c3ccc4c(c3)n(C3CCCC3)c3nc(=O)c5c(Br)cccc5n43)CC2)NC(=O)[C@@H]2C[C@@H](O)CN2C(=O)[C@@H](NC(=O)C2(F)CC2)C(C)(C)C)cc1` (some centres unmarked) [compound 9], the Dmax on SMARCA2 (NCI-H1568 (4 h), mean ± SD) came out at 92 ± 8%. Besides, the DC50 was 32 ± 17 nM at SMARCA2 (setting [1]); 54.9 nM and 24.6 nM and 25.2 nM at SMARCA2 (setting [2]). In addition, the “PPB fu 10% Calf” value in the data set “Plasma protein binding” (10% calf) is reported as 8.695%. Besides, the fraction unbound at 5 h, 3 µmol/L in the data set “Plasma protein binding” (setting [3]) was 0.07 ± 0.02; in “Plasma protein binding” (setting [4]) it was 0.0538. Also, the Papp A→B at 1 µM in the data set with P-gp (Modified Caco-2 + PGPi (Zosuquidar), read-out: Modified Caco-2 + PGPi (Zosuquidar) Pab) was 12 ± 2 ×10⁻⁶ cm/s. Also, the Papp B→A at 2 h, 1 µM in the data set with P-gp came out at 19 ×10⁻⁶ cm/s.
For the compound `Cc1ncsc1-c1ccc([C@H](CCCCCN2CCC(c3ccc4c(c3)n(C3CCCC3)c3nc(=O)c5c(Br)cccc5n43)CC2)NC(=O)[C@@H]2C[C@@H](O)CN2C(=O)[C@@H](NC(=O)C2(F)CC2)C(C)(C)C)cc1` [compound 11], the Dmax on SMARCA2 (NCI-H1568 (4 h), mean ± SD) amounted to 90 ± 0.3%. The DC50 on SMARCA2 (setting [1]) was 8 ± 4 nM; on SMARCA2 (setting [2]) it was 5.2 nM and 13 nM and 6.7 nM. Moreover, the “PPB fu 10% Calf” value in “Plasma protein binding” (10% calf) is 0.136%. Also, in the data set “Plasma protein binding” (10% human), the “PPB fu 10% Human” value is < 0.043% and < 0.038%. The “PPB fu 10% Mouse” value in “Plasma protein binding” (10% mouse) was < 0.038% and < 0.228% and 1.281%. In addition, in the data set “Plasma protein binding” (10% rat), the “PPB fu 10% Rat” value is < 0.044% and < 0.048%. The fraction unbound at 5 h, 3 µmol/L is 0.0014 in “Plasma protein binding” (setting [3]); < 0.00092 in the data set “Plasma protein binding” (setting [4]); < 0.00049 in the data set “Plasma protein binding” (human, 10% plasma (plasma dilution in PBS), 10% human, read-out: PPB fu 10% Human); < 0.0004 in “Plasma protein binding” (human, plasma, human, fraction unbound, read-out: PPB fu Human); < 0.0004 in the data set “Plasma protein binding” (mouse, plasma, mouse, fraction unbound, read-out: PPB fu Mouse); < 0.00047 in “Plasma protein binding” (rat, 10% plasma (plasma dilution in PBS), 10% rat, read-out: PPB fu 10% Rat). Further, the fraction unbound at 5 h, 3 µmol/L in the data set “Plasma protein binding” (rat, plasma, rat, fraction unbound, read-out: PPB fu Rat) was < 0.0004. In addition, in the data set with P-gp, the Papp B→A at 2 h, 1 µM was 24 ×10⁻⁶ cm/s.
